The experiment concerns the target human transferrin receptor (hTfR) (Homo sapiens, UniProt P02786). In words: SPR measurement under pH 7.4 conditions (Biacore T200, CM3 chip, hTfR captured by His Tag antibody). In kind it is binding. On the procedure: Molecular interactions between the synthesized peptides and the transferrin receptor (hTfR) were evaluated by surface plasmon resonance (SPR) using the following method. The specific assay procedure is described below.
An CM3 sensor chip (Cytiva) was inserted into BiacoreT200 (Cytiva), then a priming operation was performed three times by using a running buffer: HBS-P+, pH7.4 (Cytiva), and an equilibrium state was created at a flow rate of […]. Ligand immobilization was performed at a flow rate of 10 µL/min. After mixing 50 µL each of 60 mM EDC solution (Cytiva) and 650 mM NHS solution (Cytiva), the mixture was reacted at a flow rate of 10 µL/min for 420 seconds. 150 µL of […] THE His Tag Antibody, mAb, Mouse (GenScript) was prepared by diluting with 10 mM acetic acid solution (pH 5.0), and reacted at a flow rate of 10 µL/ min for 420 seconds. Then, THE His Tag Antibody, mAb, Mouse (GenScript) was immobilized as a capture molecule on the CM3 sensor chip. After immobilization, capping was performed by reacting with 1.0 M ethanolamine solution (Cytiva) at a flow rate of 10 µL/min for 420 seconds. 300 nM hTfR was captured at a flow rate of 10 µL/min, a peptide solution prepared at 10 mM in DMSO was diluted with running buffer to achieve a final concentration of 10 µM, and peptide solutions at 250 nM, 125 nM, 62.5 nM, 25 nM, and 12.5 nM were prepared. . The peptide samples were reacted at a flow late of 30 µL/min for 120 seconds, followed by dissociation for 600 seconds. The kinetics of the peptide against hTfR was obtained by SPR measurement for the above samples.
The kinetic evaluation model was single-cycle kinetics, and curve fitting was performed using Biacore T200 Evaluation Software Version 3.0 (Cytiva). The binding of the peptide to hTfR was evaluated by performing curve fitting on the obtained sensorgram by the least squares method and obtaining the kon value, the koff value, and the KD value.

Setting [1] is: SPR, pH 7.4, peptide with the linker named in the table, read-out: hTfR SPR pH7.4 KD.

Where two headings read alike, the source gives them in different places. Numbered stars: 1 amine (or outer) side, 2 acyl side, 3 side chain; on linkers, the order of the positions; unused ones are H or OH. Bridge positions count the residues as written; N and C are the ends. Square brackets hold non-standard residues; d marks the D form. Peptide text beside a SMILES is read from it. * marks the point of attachment. CH2CO(D-glucamine) = O=C(C*)NC[C@H](O)[C@@H](O)[C@H](O)[C@H](O)CO; NH(1-deoxy-D-glucityl) = OC[C@@H](O)[C@@H](O)[C@H](O)[C@@H](O)CN*; Trp(1-CH2COOH) = N[C@@H](Cc1cn(CC(=O)O)c2ccccc12)C(=O)O; NMePhe(4-COOH) = CN[C@@H](Cc1ccc(C(=O)O)cc1)C(=O)O; X1 = O=C([C@H](Cc1cccc(C(=O)[*:3])c1)N[*:1])[*:2]; Nle(6-morpholino) = N[C@@H](CCCCN1CCOCC1)C(=O)O; Phe(3-COOH) = N[C@@H](Cc1cccc(C(=O)O)c1)C(=O)O; Trp(7-aza) = N[C@@H](Cc1c[nH]c2ncccc12)C(=O)O; NH(CH2CH2O)8Me = COCCOCCOCCOCCOCCOCCOCCOCCN*; NMePhe(3-Cl) = CN[C@@H](Cc1cccc(Cl)c1)C(=O)O; 3Pal(6-NH2) = Nc1ccc(C[C@H](N)C(=O)O)cn1; NMeW = CN[C@@H](Cc1c[nH]c2ccccc12)C(=O)O; NMe3Pal = CN[C@@H](Cc1cccnc1)C(=O)O; NMeY = CN[C@@H](Cc1ccc(O)cc1)C(=O)O; Nva(3-Et) = CCC(CC)[C@H](N)C(=O)O; NMeF = CN[C@@H](Cc1ccccc1)C(=O)O; 4Pal = N[C@@H](Cc1ccncc1)C(=O)O; PEG4 = NCCOCCOCCOCCOCCC(=O)O; Carboxymethyl = O=C(O)C*

human transferrin receptor (hTfR), sequence (P02786 whole entry): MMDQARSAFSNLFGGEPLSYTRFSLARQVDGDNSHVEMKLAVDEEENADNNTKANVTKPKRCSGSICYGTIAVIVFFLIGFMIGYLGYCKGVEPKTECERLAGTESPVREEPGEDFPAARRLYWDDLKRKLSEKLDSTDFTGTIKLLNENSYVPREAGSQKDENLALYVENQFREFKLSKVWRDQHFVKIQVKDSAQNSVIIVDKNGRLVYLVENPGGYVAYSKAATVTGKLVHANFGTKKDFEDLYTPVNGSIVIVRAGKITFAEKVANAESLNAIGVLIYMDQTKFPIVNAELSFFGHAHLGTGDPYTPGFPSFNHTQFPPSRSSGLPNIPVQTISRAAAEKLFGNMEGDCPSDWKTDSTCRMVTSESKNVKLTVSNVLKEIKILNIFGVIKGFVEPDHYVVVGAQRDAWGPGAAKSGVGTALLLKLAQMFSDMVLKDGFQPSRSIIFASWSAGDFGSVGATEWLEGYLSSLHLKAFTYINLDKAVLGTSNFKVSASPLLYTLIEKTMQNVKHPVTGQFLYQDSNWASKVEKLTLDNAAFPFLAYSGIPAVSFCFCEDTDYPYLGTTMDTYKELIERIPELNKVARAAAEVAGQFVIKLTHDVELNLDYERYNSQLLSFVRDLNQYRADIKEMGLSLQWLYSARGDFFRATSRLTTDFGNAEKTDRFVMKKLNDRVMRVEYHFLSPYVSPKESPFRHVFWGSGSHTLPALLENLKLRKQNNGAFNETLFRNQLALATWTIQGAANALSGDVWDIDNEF

One may read the Kd as the equilibrium constant for the complex coming apart. For the compound `CC[C@H](C)[C@@H]1NC(=O)[C@H](Cc2ccc(OCC(=O)NC[C@H](O)[C@@H](O)[C@H](O)[C@H](O)CO)cc2)NC(=O)[C@H](Cc2ccc(N)nc2)NC(=O)[C@H](CC(N)=O)NC(=O)[C@H](Cc2c[nH]c3ncccc23)NC(=O)[C@H](C(C)C)NC(=O)[C@H](Cc2cccc(Cl)c2)N(C)C(=O)[C@H](C(C)C)NC(=O)[C@H](C)NC(=O)CSC[C@@H](C(=O)NCCOCCOCCOCCOCCC(N)=O)NC(=O)[C@H](Cc2ccc(O)cc2)N(C)C(=O)[C@H](Cc2ccncc2)NC(=O)[C@H](CCCCN2CCOCC2)NC(=O)[C@H](CCC(=O)NC[C@H](O)[C@@H](O)[C@H](O)[C@H](O)CO)NC(=O)[C@H]([C@@H](C)CC)NC1=O` [compound 13] ({CH2CO}-AV[NMePhe(3-Cl)]V[Trp(7-aza)]N[3Pal(6-NH2)]Y(CH2CO(D-glucamine))IIE(NH(1-deoxy-D-glucityl))[Nle(6-morpholino)][4Pal][NMeY]C[PEG4]-NH2; thioether N-15), the dissociation constant (Kd) (pH 7.4, single-cycle kinetics, read-out: hTfR SPR pH7.4 KD) amounted to 11.4 nM.
In the case of `CCC(CC)[C@@H]1NC(=O)[C@H](Cc2ccc(OCC(=O)O)cc2)NC(=O)[C@H](Cc2ccc(N)nc2)NC(=O)[C@H](CC(N)=O)NC(=O)[C@H](Cc2c[nH]c3ccccc23)NC(=O)[C@H](C(C)C)NC(=O)[C@H](Cc2cccc(Cl)c2)N(C)C(=O)[C@H](C(C)C)NC(=O)[C@H](C)NC(=O)CSC[C@@H](C(=O)NCCOCCOCCOCCOCCC(N)=O)NC(=O)[C@H](Cc2ccc(C(=O)O)cc2)N(C)C(=O)[C@H](Cc2cccc(C(=O)O)c2)NC(=O)[C@H](CCCNC(=N)N)NC(=O)[C@H](CCC(=O)NCCOCCOCCOCCOCCOCCOCCOCCOC)NC(=O)[C@H]([C@@H](C)CC)NC1=O` [compound 85] ({CH2CO}-AV[NMePhe(3-Cl)]VWN[3Pal(6-NH2)]Y(Carboxymethyl)[Nva(3-Et)]IE(NH(CH2CH2O)8Me)R[Phe(3-COOH)][NMePhe(4-COOH)]C[PEG4]-NH2; thioether N-15), for the setting “SPR, pH 7.4, read-out: hTfR SPR pH7.4 KD”, the Kd came out at 234 nM.
`CCC(CC)[C@@H]1NC(=O)[C@H](Cc2ccc(OCC(=O)O)cc2)NC(=O)[C@H](Cc2ccc(O)cc2)NC(=O)[C@H](CC(N)=O)NC(=O)[C@H](Cc2cn(CC(=O)O)c3ccccc23)NC(=O)[C@H](C(C)C)NC(=O)[C@H](Cc2cccc(Cl)c2)N(C)C(=O)[C@H](C(C)C)NC(=O)[C@H](C)NC(=O)CSC[C@@H](C(=O)NCCOCCOCCOCCOCCC(N)=O)NC(=O)[C@H](Cc2cccnc2)N(C)C(=O)[C@H](Cc2cccc(C(=O)O)c2)NC(=O)[C@H](CCCNC(=N)N)NC(=O)[C@H](CCC(N)=O)NC(=O)[C@H]([C@@H](C)CC)NC1=O` [compound 97] ({CH2CO}-AV[NMePhe(3-Cl)]V[Trp(1-CH2COOH)]NYY(Carboxymethyl)[Nva(3-Et)]IQR[Phe(3-COOH)][NMe3Pal]C[PEG4]-NH2; thioether N-15): the dissociation constant (Kd) under setting [1] turned out to be 22.6 nM.
On the same count and under the same terms, to `CC[C@H](C)[C@@H]1NC(=O)[C@H](Cc2ccc(O)cc2)NC(=O)[C@H](Cc2ccc(O)cc2)NC(=O)[C@H](CC(N)=O)NC(=O)[C@H](Cc2c[nH]c3ccccc23)N(C)C(=O)[C@H](C(C)C)NC(=O)[C@H](Cc2ccccc2)N(C)C(=O)[C@H](C(C)C)NC(=O)[C@H](C)NC(=O)CSC[C@@H](C(=O)NCCOCCOCCOCCOCCC(N)=O)NC(=O)[C@H](Cc2ccc(C(=O)O)cc2)N(C)C(=O)[C@H](Cc2cccc(C(=O)NCCOCCOCCOCCOCCC(=O)O)c2)NC(=O)[C@H](CCCNC(=N)N)NC(=O)[C@H](CCCCN)NC(=O)[C@H]([C@@H](C)CC)NC1=O` [compound 121] ({CH2CO}-AV[NMeF]V[NMeW]NYYIIKR[X1](PEG4)[NMePhe(4-COOH)]C[PEG4]-NH2; thioether N-15) belongs 1.84 nM.
`CC[C@H](C)[C@@H]1NC(=O)[C@H](Cc2ccc(OCC(=O)N3CCN(CC(=O)O)CC3)cc2)NC(=O)[C@H](Cc2ccc(N)nc2)NC(=O)[C@H](CC(N)=O)NC(=O)[C@H](Cc2c[nH]c3ncccc23)NC(=O)[C@H](C(C)C)NC(=O)[C@H](Cc2cccc(Cl)c2)N(C)C(=O)[C@H](C(C)C)NC(=O)[C@H](C)NC(=O)CSC[C@@H](C(=O)NCCOCCOCCOCCOCCC(N)=O)NC(=O)[C@H](Cc2ccc(O)cc2)N(C)C(=O)[C@H](Cc2ccncc2)NC(=O)[C@H](CCCNC(=N)N)NC(=O)[C@H](CCC(=O)NCCOCCOCCOCCOCCOCCOCCOCCOC)NC(=O)[C@H]([C@@H](C)CC)NC1=O` [compound 153]: under “SPR, pH 7.4, Table 2-1-2, read-out: hTfR SPR pH7.4 KD(n M)”, the Kd came out at 44.3 nM.

The values are drawn from patent EP4667483A1, “HUMAN TRANSFERRIN RECEPTOR-BINDING PEPTIDE” (JCR Pharmaceuticals Co., Ltd., priority 2023, dated 2024).
